Measurements: US20180235904A1, “CANNABIDIOL COMPOSITIONS INCLUDING MIXTURES AND USES THEREOF” (EARTH SCIENCE TECH, INC., priority 2014, published 2018)

Test system: RAW264.7 macrophages
Assay: Stimulation of macrophages, TNFα production (ELISA)
Format: cell-based, mouse
Details: 24 h
Procedure: RAW264.7, a mouse macrophage-like cell line, was used. The cells were cultured in DMEM, supplemented with 10% fetal calf serum (FCS), in 5% CO2, 95% air, at 37° C. in an humidified incubator.
The stimulation of macrophages was assessed by TNFα production, using a mouse TNFα ELISA kit.
To study the effects of hemp oil on macrophages, cells were seeded in a 24-well plate (2×10^5 cell/well) in 1-ml medium in each well for 12 h, and then incubated with hemp oil solution of different CBD concentrations (0-10 μM) for 24 h. Cell supernatant was collected for ELISA analysis.
After the macrophages were incubated with hemp oil of different CBD concentrations (0, 1, 2.5, 5, 10 μM), the TNFα production by the cells was detected.

`C=C(C)[C@@H]1CCC(C)=C[C@H]1c1c(O)cc(CCCCC)cc1O` [CBD, Cannabidiol] was tested, and the TNFα production (CBD concentration of 10 μM) was “induced TNFα production at a significantly higher level” and the “impact on macrophages (TNFα production)” value (CBD concentration range of 0 to 5 μM) was “not significant”.
